Test results taken from patent US5756531A, “Iminoxy derivatives of indole and indene compounds as inhibitors of prostaglandin biosynthesis” (Abbott Laboratories, priority 1996, dated 1998).

Assays:
[1] = biological target: T1, recombinant human PGHS-2 (prostaglandin hydroperoxidase -2, cyclooxygenase-2) (Homo sapiens, UniProt P35354); experiment: Recombinant Human PGHS-2 enzyme assay (PGE2 production by EIA); assay type: biochemical; details: 60 min preincubation; 10 μM arachidonic acid
T1 construct: made in house; host or cells: baculovirus/Sf9 insect cells (microsomes)
T1 sequence (P35354 18-604): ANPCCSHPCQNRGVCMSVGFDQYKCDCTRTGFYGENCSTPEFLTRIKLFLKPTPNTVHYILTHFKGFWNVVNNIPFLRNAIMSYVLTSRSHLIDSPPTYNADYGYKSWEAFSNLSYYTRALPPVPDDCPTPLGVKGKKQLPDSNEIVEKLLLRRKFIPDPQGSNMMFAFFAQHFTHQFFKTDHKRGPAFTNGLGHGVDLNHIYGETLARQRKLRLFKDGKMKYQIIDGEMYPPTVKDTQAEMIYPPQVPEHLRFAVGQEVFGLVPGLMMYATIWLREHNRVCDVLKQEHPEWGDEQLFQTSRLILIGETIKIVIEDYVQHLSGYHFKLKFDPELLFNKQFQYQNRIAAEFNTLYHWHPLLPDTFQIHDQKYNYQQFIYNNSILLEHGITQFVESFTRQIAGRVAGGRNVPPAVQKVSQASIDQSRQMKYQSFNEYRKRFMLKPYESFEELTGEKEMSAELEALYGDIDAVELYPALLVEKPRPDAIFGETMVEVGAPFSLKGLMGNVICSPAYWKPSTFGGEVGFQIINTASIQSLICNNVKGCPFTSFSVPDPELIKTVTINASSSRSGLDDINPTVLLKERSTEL
Procedure: 2. recombinant human prostaglandin hydroperoxidase -2 (cyclooxygenase-2)
(§1) Compound dissolved in DMSO (3.3% v/v) was preincubated with microsomes from recombinant human PGHS-1 or PGHS-2 expressed in the baculovirus/Sf9 cell system (Gierse, J. K., Hauser, S. D., Creely, D. P., Koboldt, C., Rangwala, S., H., Isakson, P. C., and Seibert, K. Expression and selective inhibition of the constituitive and inducible forms of cyclooxygenase Biochem J. 1995, 305: 479.), together with the cofactors phenol (2 mM) and hematin (1 μM) for 60 minutes prior to the addition of 10 μM arachidonic acid. The reaction was allowed to run for 2.5 minutes at room temperature prior to quenching with HCl and neutralization with NaOH. PGE2 production in the presence and absence of the drug was determined by EIA analysis.
(§2) EIA reagents for prostaglandin determination were purchased from Perseptive Diagnostics, Cambridge, Mass. PGE2 levels in lavage fluids were determined after the samples were dried under nitrogen and reconstituted with assay buffer. PGE2 levels in enzyme assays or cell culture media were measured against standards prepared in the same milieu. The immunoassays were conducted as recommended by the manufacturer. The EIA was conducted in 96 well microtiter plates (Nunc Roskilde, Denmark) and optical density measured using a microplate reader (Vmax, Molecular Devices Corp., Menlo Park, Calif.).

[2] = biological target: T2, recombinant human PGHS-1 (prostaglandin hydroperoxidase -1, cyclooxygenase-1) (Homo sapiens, UniProt P23219); experiment: Recombinant Human PGHS-1 enzyme assay (PGE2 production by EIA); assay type: biochemical; details: 60 min preincubation; 10 μM arachidonic acid
T2 construct: made in house; host or cells: baculovirus/Sf9 insect cells (microsomes)
T2 sequence (P23219 24-599): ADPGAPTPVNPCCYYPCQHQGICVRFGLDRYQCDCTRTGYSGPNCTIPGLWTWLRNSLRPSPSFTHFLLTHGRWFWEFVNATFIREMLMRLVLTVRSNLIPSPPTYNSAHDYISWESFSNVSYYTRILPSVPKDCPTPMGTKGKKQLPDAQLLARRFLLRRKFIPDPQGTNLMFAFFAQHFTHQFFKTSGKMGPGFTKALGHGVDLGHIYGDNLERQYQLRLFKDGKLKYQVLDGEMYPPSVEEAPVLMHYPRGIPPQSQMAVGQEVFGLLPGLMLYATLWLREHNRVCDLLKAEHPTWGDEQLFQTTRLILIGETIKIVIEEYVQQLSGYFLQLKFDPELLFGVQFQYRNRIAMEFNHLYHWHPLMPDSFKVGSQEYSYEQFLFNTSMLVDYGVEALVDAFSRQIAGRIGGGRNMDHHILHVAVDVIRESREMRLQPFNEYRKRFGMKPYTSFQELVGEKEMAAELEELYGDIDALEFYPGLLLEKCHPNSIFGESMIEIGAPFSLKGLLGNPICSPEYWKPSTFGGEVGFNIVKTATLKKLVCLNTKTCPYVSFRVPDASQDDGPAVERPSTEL
Procedure: 1. recombinant human prostaglandin hydroperoxidase -1 (cyclooxygenase-1)
as §1, §2

PGHS-2 = details: in words; cited from earlier work
PGHS-1 = details: in words; cited from earlier work

| IC50 [1] [µM] | IC50 [2] [µM] | SMILES | inhibition of PGHS-2 (PGHS-2) | inhibition of PGHS-1 (PGHS-1) |
| --- | --- | --- | --- | --- |
| 0.06 | 24 | COc1ccc2c(c1)c(CCON=CC(O)CO)c(C)n2C(=O)c1ccc(Cl)cc1 (stereo not drawn) [Example 7, glyceraldehyde-O-[2-(1-(4-chlorobenzoyl)-5-methoxy-2-methylindol-3-yl)ethyl] oxime] | – | – |
| – | – | COc1ccc2c(c1)c(CC(=O)O)c(C)n2C(=O)c1ccc(Cl)cc1 [Indomethacin, indomethacin] | inhibit both PGHS-1 and PGHS-2 | inhibit both PGHS-1 and PGHS-2 |
| 0.07 | 52 | COc1ccc2c(c1)c(CCON=C(C)/C=C/C(=O)O)c(C)n2C(=O)c1ccc(Cl)cc1 [Example 6, 4-oxopent-2-enoic acid-2-O-[2-(4-chlorobenzoyl-5-methoxy-2-methylindol-3-yl)ethyl] oxime] | – | – |
| – | – | COc1ccc2cc([C@H](C)C(=O)O)ccc2c1 [naproxen] | inhibit both isozymes | inhibit both isozymes |
| – | – | CC1=C(CC(=O)O)c2cc(F)ccc2/C1=C\c1ccc([S+](C)[O-])cc1 (stereo not drawn) [sulindac] | inhibit both PGHS-1 and PGHS-2 | inhibit both PGHS-1 and PGHS-2 |
| – | – | CC(C)Cc1ccc(C(C)C(=O)O)cc1 (stereo not drawn) [ibuprofen] | inhibit both isozymes | inhibit both isozymes |
